#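 At the GI50, growth is halved. The concentration for full growth arrest is given as TGI.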
# Legend:
# Test in all cases: DTP human tumour cell line panel, 384-well format
# MCF7 breast = tested on: MCF7 breast
# ACHN renal = tested on: ACHN renal
# TK-10 renal = tested on: TK-10 renal
# NCI-H460 NSCLC = tested on: NCI-H460 NSCLC
# HT29 colon = tested on: HT29 colon
# HS 578T breast = tested on: HS 578T breast
# LOX IMVI melanoma = tested on: LOX IMVI melanoma
# SNB-19 CNS = tested on: SNB-19 CNS
# NCI-H322M lung = tested on: NCI-H322M lung
# KM12 colon = tested on: KM12 colon
# OVCAR-8 ovarian = tested on: OVCAR-8 ovarian
# U251 glioblastoma = tested on: U251 glioblastoma
# MDA-MB-231 breast = tested on: MDA-MB-231 breast
# UO-31 renal = tested on: UO-31 renal
# PC-3 prostate = tested on: PC-3 prostate
# M14 melanoma = tested on: M14 melanoma
# OVCAR-4 ovarian = tested on: OVCAR-4 ovarian
# MOLT-4 leukemia = tested on: MOLT-4 leukemia
# RPMI-8226 leukemia = tested on: RPMI-8226 leukemia
# SF-268 CNS = tested on: SF-268 CNS
# SW-620 colon = tested on: SW-620 colon
# CAKI-1 renal = tested on: CAKI-1 renal
# HCC-2998 colon = tested on: HCC-2998 colon
# OVCAR-3 ovarian = tested on: OVCAR-3 ovarian
# HL-60(TB) leukemia = tested on: HL-60(TB) leukemia
# MDA-MB-468 breast = tested on: MDA-MB-468 breast
# NCI-H226 lung = tested on: NCI-H226 lung
# HOP-62 NSCLC = tested on: HOP-62 NSCLC
# SF-295 CNS = tested on: SF-295 CNS
# MALME-3M melanoma = tested on: MALME-3M melanoma
# 786-0 renal = tested on: 786-0 renal
# DU-145 prostate = tested on: DU-145 prostate
# HCT-15 colon = tested on: HCT-15 colon
# CCRF-CEM leukemia = tested on: CCRF-CEM leukemia
# A498 renal = tested on: A498 renal
# SF-539 CNS = tested on: SF-539 CNS
# SN12C renal = tested on: SN12C renal
# HOP-92 NSCLC = tested on: HOP-92 NSCLC
# SNB-75 CNS = tested on: SNB-75 CNS
# BT-549 breast = tested on: BT-549 breast
# IGROV1 ovarian = tested on: IGROV1 ovarian
# SK-OV-3 ovarian = tested on: SK-OV-3 ovarian
# MDA-MB-435 melanoma = tested on: MDA-MB-435 melanoma
# NCI-H522 lung = tested on: NCI-H522 lung
# NCI/ADR-RES ovarian = tested on: NCI/ADR-RES ovarian
# HCT-116 colon = tested on: HCT-116 colon
# SK-MEL-5 melanoma = tested on: SK-MEL-5 melanoma
# NCI-H23 lung = tested on: NCI-H23 lung
# UACC-62 melanoma = tested on: UACC-62 melanoma
# COLO 205 colon = tested on: COLO 205 colon
# UACC-257 melanoma = tested on: UACC-257 melanoma
# EKVX NSCLC = tested on: EKVX NSCLC
# T-47D breast = tested on: T-47D breast
# K-562 leukemia = tested on: K-562 leukemia
# RXF 393 renal = tested on: RXF 393 renal
# SK-MEL-28 melanoma = tested on: SK-MEL-28 melanoma
# A549 NSCLC = tested on: A549 NSCLC
compound,measurement,setting,value
Cc1ccc2c(=O)c3cccc(CC(=O)O)c3oc2c1C,GI50,MCF7 breast,> 100 µM
same,TGI,MCF7 breast,> 100 µM
same,GI50,ACHN renal,> 100 µM
same,TGI,ACHN renal,> 100 µM
same,GI50,TK-10 renal,> 100 µM
same,TGI,TK-10 renal,> 100 µM
same,GI50,NCI-H460 NSCLC,> 100 µM
same,TGI,NCI-H460 NSCLC,> 100 µM
same,GI50,HT29 colon,> 100 µM
same,TGI,HT29 colon,> 100 µM
same,GI50,HS 578T breast,> 100 µM
same,TGI,HS 578T breast,> 100 µM
same,GI50,LOX IMVI melanoma,> 100 µM
same,TGI,LOX IMVI melanoma,> 100 µM
same,GI50,SNB-19 CNS,> 100 µM
same,TGI,SNB-19 CNS,> 100 µM
same,GI50,NCI-H322M lung,> 100 µM
same,TGI,NCI-H322M lung,> 100 µM
same,GI50,KM12 colon,> 100 µM
same,TGI,KM12 colon,> 100 µM
same,GI50,OVCAR-8 ovarian,> 100 µM
same,TGI,OVCAR-8 ovarian,> 100 µM
same,GI50,U251 glioblastoma,> 100 µM
same,TGI,U251 glioblastoma,> 100 µM
same,GI50,MDA-MB-231 breast,> 100 µM
same,TGI,MDA-MB-231 breast,> 100 µM
same,GI50,UO-31 renal,> 100 µM
same,TGI,UO-31 renal,> 100 µM
same,GI50,PC-3 prostate,> 100 µM
same,TGI,PC-3 prostate,> 100 µM
same,GI50,M14 melanoma,> 100 µM
same,TGI,M14 melanoma,> 100 µM
same,GI50,OVCAR-4 ovarian,> 100 µM
same,TGI,OVCAR-4 ovarian,> 100 µM
same,GI50,MOLT-4 leukemia,> 100 µM
same,TGI,MOLT-4 leukemia,> 100 µM
same,GI50,RPMI-8226 leukemia,> 100 µM
same,TGI,RPMI-8226 leukemia,> 100 µM
same,GI50,SF-268 CNS,> 100 µM
same,TGI,SF-268 CNS,> 100 µM
same,GI50,SW-620 colon,> 100 µM
same,TGI,SW-620 colon,> 100 µM
same,GI50,CAKI-1 renal,> 100 µM
same,TGI,CAKI-1 renal,> 100 µM
same,GI50,HCC-2998 colon,> 100 µM
same,TGI,HCC-2998 colon,> 100 µM
same,GI50,OVCAR-3 ovarian,> 100 µM
same,TGI,OVCAR-3 ovarian,> 100 µM
same,GI50,HL-60(TB) leukemia,> 100 µM
same,TGI,HL-60(TB) leukemia,> 100 µM
same,GI50,MDA-MB-468 breast,> 100 µM
same,TGI,MDA-MB-468 breast,> 100 µM
same,GI50,NCI-H226 lung,> 100 µM
same,TGI,NCI-H226 lung,> 100 µM
same,GI50,HOP-62 NSCLC,> 100 µM
same,TGI,HOP-62 NSCLC,> 100 µM
same,GI50,SF-295 CNS,> 100 µM
same,TGI,SF-295 CNS,> 100 µM
same,GI50,MALME-3M melanoma,> 100 µM
same,TGI,MALME-3M melanoma,> 100 µM
same,GI50,786-0 renal,> 100 µM
same,TGI,786-0 renal,> 100 µM
same,GI50,DU-145 prostate,> 100 µM
same,TGI,DU-145 prostate,> 100 µM
same,GI50,HCT-15 colon,> 100 µM
same,TGI,HCT-15 colon,> 100 µM
same,GI50,CCRF-CEM leukemia,> 100 µM
same,TGI,CCRF-CEM leukemia,> 100 µM
same,GI50,A498 renal,> 100 µM
same,TGI,A498 renal,> 100 µM
same,GI50,SF-539 CNS,> 100 µM
same,TGI,SF-539 CNS,> 100 µM
same,GI50,SN12C renal,> 100 µM
same,TGI,SN12C renal,> 100 µM
same,GI50,HOP-92 NSCLC,> 100 µM
same,TGI,HOP-92 NSCLC,> 100 µM
same,GI50,SNB-75 CNS,> 100 µM
same,TGI,SNB-75 CNS,> 100 µM
same,GI50,BT-549 breast,> 100 µM
same,TGI,BT-549 breast,> 100 µM
same,GI50,IGROV1 ovarian,> 100 µM
same,TGI,IGROV1 ovarian,> 100 µM
same,GI50,SK-OV-3 ovarian,> 100 µM
same,TGI,SK-OV-3 ovarian,> 100 µM
same,GI50,MDA-MB-435 melanoma,> 100 µM
same,TGI,MDA-MB-435 melanoma,> 100 µM
same,GI50,NCI-H522 lung,> 100 µM
same,TGI,NCI-H522 lung,> 100 µM
same,GI50,NCI/ADR-RES ovarian,> 100 µM
same,TGI,NCI/ADR-RES ovarian,> 100 µM
same,GI50,HCT-116 colon,> 100 µM
same,TGI,HCT-116 colon,> 100 µM
same,GI50,SK-MEL-5 melanoma,> 100 µM
same,TGI,SK-MEL-5 melanoma,> 100 µM
same,GI50,NCI-H23 lung,> 100 µM
same,TGI,NCI-H23 lung,> 100 µM
same,GI50,UACC-62 melanoma,> 100 µM
same,TGI,UACC-62 melanoma,> 100 µM
same,GI50,COLO 205 colon,> 100 µM
same,TGI,COLO 205 colon,> 100 µM
same,GI50,UACC-257 melanoma,> 100 µM
same,TGI,UACC-257 melanoma,> 100 µM
same,GI50,EKVX NSCLC,> 100 µM
same,TGI,EKVX NSCLC,> 100 µM
same,GI50,T-47D breast,> 100 µM
same,TGI,T-47D breast,> 100 µM
same,GI50,K-562 leukemia,> 100 µM
same,TGI,K-562 leukemia,> 100 µM
same,GI50,RXF 393 renal,> 100 µM
same,TGI,RXF 393 renal,> 100 µM
same,GI50,SK-MEL-28 melanoma,> 100 µM
same,TGI,SK-MEL-28 melanoma,> 100 µM
same,GI50,A549 NSCLC,> 100 µM
same,TGI,A549 NSCLC,> 100 µM

# From PubChem BioAssay (NCI)
